Results: patent US20260242839A1, “GLYCOSIDE PRODUCT BIOSYNTHESIS AND RECOVERY” (Manus Bio Inc., priority 2023, published 2026)

B1: SEQ ID NO: 73: HvUGT_B3 (Hordeum vulgare subsp. Vulgare) (protein)
chain: MAEANDGGKMHVVMLPWLAFGHVLPFTEFAKRVARQGHRVTLLSAPRNTRRLIDIPPGLAGLIRVVHVPLPRVDGLPEHAEATIDLPSDHLRPCLRRAFDAAFERELSRLLQEEAKPDWVLVDYASYWAPTAAARHGVPCAFLSLFGAAALSFFGTPETLLGIGRHAKTEPAHLTVVPEYVPFPTTVAYRGYEARELFEPGMVPDDSGVSEGYRFAKTIEGCQLVGIRSSSEFEPEWLRLLGELYRKPVIPVGLFPPAPQDDVAGHEATLRWLDGQAPSSVVYAAFGSEVKLTGAQLQRIALGLEASGLPFIWAFRAPTSTETGAASGGLPEGFEERLAGRGVVCRGWVPQVKFLAHASVGGFLTHAGWNSIAEGLAHGVRLVLLPLVFEQGLNARNIVDKNIGVEVARDEQDGSFAAGDIAAALRRVMVEDEGEGFGAKVKELAKVFGDDEVNDQCVREFLMHLSDHSKKNQGQD
modifications: Hordeum vulgare

What was measured:
[1] = maximum solubility of RebM in fermentation broth; format: physicochemical
Protocol: Fermentation broth was held at a constant temperature of 70° C. and subjected to different treatments as described in Table 7. RebM was slowly added with constant stirring to determine the maximum solubility of RebM.

[2] = estimated; Prakash et al. 2014; cited from earlier work
Mog. IIE or Mog. IE = experiment: branched glycosylation reactions by cells expressing UGT enzymes; format: cell-based, E. coli; conditions: Mog. IIE or Mog. IE fed; 37° C., 48 hr; LC-MS/MS
Protocol: Mog. IIE or Mog. IE was fed to cells expressing various UGT enzymes. Reactions were incubated at 37° C. for 48 hr. Products were quantified by LC-MS/MS with authentic standards of each compound. “Indirect” evidence means that consumption of substrate was observed.

Mog. I-E = experiment: production of Mog. II-A2 from Mog. I-E; format: cell-based, E. coli; conditions: 37° C., 48 hr; FIG. 20
Protocol: II-A2. Mog. I-E was fed in vitro. In the experiment, engineered E. coli strains (chassis strain) expressing UGT enzyme SEQ ID NO: 73 were incubated at 37° C. for 48 hr. Products were quantified by LC-MS/MS with authentic standards of each compound. […] IE to Mog. II-A2.

| Molecule | RebM solubility ([1]; pH 3.5, 70.8 ° C., no small molecule enhancer) | RebM solubility ([1]; pH 7, 70.8 ° C., Glycerol 0.5 wt %) | RebM solubility ([1]; pH 7, 70.8 ° C., no small molecule enhancer) | RebM solubility ([1]; pH 11.6, 70.8 ° C., 1,3-Propanediol 0.5 wt %) | RebM solubility ([1]; pH 11.6, 70.8 ° C., Glycerol 0.5 wt %) | times more potent than sucrose [2] | C3 1-2 (Mog. IIE or Mog. IE) | C3 1-6 (Mog. IIE or Mog. IE) | C24 1-2 (Mog. IIE or Mog. IE) | C24 1-6 (Mog. IIE or Mog. IE) | bioconversion of Mog. IE to Mog. II-A2 (Mog. I-E) |
| --- | --- | --- | --- | --- | --- | --- | --- | --- | --- | --- | --- |
| C=C1C[C@@]23CC[C@H]4[C@@](C)(CCC[C@@]4(C)C(=O)O[C@@H]4O[C@H](CO)[C@@H](O)[C@H](O[C@@H]5O[C@H](CO)[C@@H](O)[C@H](O)[C@H]5O)[C@H]4O[C@@H]4O[C@H](CO)[C@@H](O)[C@H](O)[C@H]4O)[C@@H]2CC[C@]1(O[C@@H]1O[C@H](CO)[C@@H](O)[C@H](O[C@@H]2O[C@H](CO)[C@@H](O)[C@H](O)[C@H]2O)[C@H]1O[C@@H]1O[C@H](CO)[C@@H](O)[C@H](O)[C@H]1O)C3 [RebM, rebaudioside M] | 68.9 mg/mL | 119.0 mg/mL | 29.9 mg/mL | 151.3 mg/mL | 151.3 mg/mL | 200-350 times | – | – | – | – | – |
| B1 | – | – | – | – | – | – | No | Yes | No | Yes | able to catalyze bioconversion of Mog. IE to Mog. II-A2 |
